Source: patent US5340929A, “Trisazo dye and dye composition containing the same” (Orient Chemical Industries, Ltd., priority 1992, dated 1994)
Where two headings read alike, the source gives them in different places.

Experiments:
[1] = Water resistance of writing (drawdown paper dipped in tap water, reflection density); format: physicochemical; settings: drawndown paper, 3% dye solution, air-dried one day
Experimental: Light resistance: The resulting dye was dissolved in a 5% aqueous diethylene glycol solution to obtain a 3% dye solution. […] A degree of discoloration was compared with that before testing.
Water resistance: The drawndown paper was air-dried for one day and dipped in tap water.
A: Reflection density is more than 70% of that before testing.
B: Reflection density is 50 to 70% of that before testing.
C: Reflection density is less than 50% that before testing.

Hue of dye / writing = format: physicochemical
strains TA98 [2] = format: cell-based
Experimental: Further, the trisazo dye of the present invention is a nontoxic trisazo dye which gives negative results in a back mutation test using an organism, which is generally known as a test method for evaluating toxicity, i.e. AMES test (mutation test).
Evaluation method of Ames test
Regarding various specimen solutions respectively containing a trisazo dyes obtained in Examples 1 to 8 of the present invention and dyes of Comparative Examples 1 to 3, the number of mutant colonies was determined using strains TA98. 2. When the ratio is less than 2, it is "negative" and, when the ratio is more than 2, it is "positive", and the results are shown in Table. 1.

strains TA98 [3] = settings: cited from earlier work

| Compound | Writing evaluation: Water resistance [1] | Hue (Hue of dye / writing) | Ames test: ratio of the number of colonies to control (strains TA98 [2]; TA98, S-9 (+), 20 μg/plate) | Ames test: ratio of the number of colonies to control (strains TA98 [2]; TA98, S-9 (+), 78 μg/plate) | Ames test: ratio of the number of colonies to control (strains TA98 [2]; TA98, S-9 (+), 313 μg/plate) | Ames test: ratio of the number of colonies to control (strains TA98 [2]; TA98, S-9 (+), 1250 μg/plate) | Ames test: ratio of the number of colonies to control (strains TA98 [2]; TA98, S-9 (+), 5000 μg/plate) | Ames test: ratio of the number of colonies to control (strains TA98 [2]; TA98, S-9 (-), 20 μg/plate) | Ames test: ratio of the number of colonies to control (strains TA98 [2]; TA98, S-9 (-), 78 μg/plate) | Ames test: ratio of the number of colonies to control (strains TA98 [2]; TA98, S-9 (-), 313 μg/plate) | Ames test: ratio of the number of colonies to control (strains TA98 [2]; TA98, S-9 (-), 1250 μg/plate) | Ames test: ratio of the number of colonies to control (strains TA98 [2]; TA98, S-9 (-), 5000 μg/plate) | Hue (Hue of dye / writing; listed as Comparative Example 1) | Ames test result (strains TA98 [3]; prior art statement, background) | AMES evaluation (strains TA98 [2]; TA98, positive/negative from ratio of colonies to control) | Hue (Hue of dye / writing; listed as Comp. Example 2) | Ames test result (strains TA98 [3]) |
| --- | --- | --- | --- | --- | --- | --- | --- | --- | --- | --- | --- | --- | --- | --- | --- | --- | --- |
| Nc1ccc(N=Nc2ccc(N(c3ccccc3)c3ccc(N=Nc4c(S(=O)(=O)O)cc5cc(S(=O)(=O)O)c(N=Nc6ccccc6)c(O)c5c4N)cc3)cc2)c(O)c1 [Ex. 1] | A (Reflection density is more than 70% of that before testing.) | Reddish | 1.18 | 1.17 | 1.32 | 0.41 | 0.29 | 0.95 | 0.82 | 0.82 | 0.95 | 0.77 | – | – | – | – | – |
| Cc1ccc(N(c2ccc(N=Nc3ccc(O)cc3O)cc2)c2ccc(N=Nc3c(S(=O)(=O)O)cc4cc(S(=O)(=O)O)c(N=Nc5ccccc5)c(O)c4c3N)cc2)cc1 [Ex. 2] | B (Reflection density is 50 to 70% of that before testing.) | Reddish | 1.17 | 1.09 | 1.02 | 0.83 | 0.87 | 1.19 | 1.32 | 1.04 | 1.06 | 1.18 | – | – | – | – | – |
| CCC(C)c1ccc(N=Nc2c(S(=O)(=O)O)cc3cc(S(=O)(=O)O)c(N=Nc4ccc(N(c5ccccc5)c5ccc(N=Nc6ccc(O)cc6O)cc5)cc4)c(N)c3c2O)cc1 (centres unmarked) [Ex. 3] | A (Reflection density is more than 70% of that before testing.) | Reddish | 1.30 | 1.07 | 1.17 | 1.67 | 0.77 | 0.87 | 0.83 | 0.78 | 0.87 | 0.70 | – | – | – | – | – |
| Nc1ccc(N=Nc2ccc(N(c3ccccc3)c3ccc(N=Nc4c(S(=O)(=O)O)cc5cc(S(=O)(=O)O)c(N=Nc6ccc(S(=O)(=O)O)cc6)c(O)c5c4N)cc3)cc2)c(O)c1 [Ex. 4] | A (Reflection density is more than 70% of that before testing.) | Reddish | 1.23 | 1.22 | 1.21 | 1.51 | 1.17 | 1.06 | 1.02 | 1.05 | 0.99 | 1.02 | – | – | – | – | – |
| CN(c1ccc(N=Nc2ccc(N)cc2O)cc1)c1ccc(N=Nc2c(S(=O)(=O)O)cc3cc(S(=O)(=O)O)c(N=Nc4ccccc4)c(O)c3c2N)cc1 [Ex. 5] | B (Reflection density is 50 to 70% of that before testing.) | Reddish | 1.60 | 1.56 | 1.44 | 1.72 | 1.20 | 1.00 | 0.78 | 0.87 | 1.39 | 1.65 | – | – | – | – | – |
| CCCCN(c1ccc(N=Nc2ccc(N)cc2O)cc1)c1ccc(N=Nc2c(S(=O)(=O)O)cc3cc(S(=O)(=O)O)c(N=Nc4ccc(C(C)CC)cc4)c(O)c3c2N)cc1 (centres unmarked) [Ex. 6] | A (Reflection density is more than 70% of that before testing.) | Reddish | 1.09 | 1.04 | 1.28 | 1.48 | 1.33 | 0.82 | 1.13 | 1.11 | 1.32 | 1.60 | – | – | – | – | – |
| CCCCCCN(c1ccc(N=Nc2ccc(N)cc2O)cc1)c1ccc(N=Nc2c(S(=O)(=O)O)cc3cc(S(=O)(=O)O)c(N=Nc4ccccc4C)c(O)c3c2N)cc1 [Ex. 7] | A (Reflection density is more than 70% of that before testing.) | Reddish | 1.20 | 1.15 | 0.82 | 0.44 | 0.53 | 1.28 | 1.50 | 1.06 | 1.33 | 0.94 | – | – | – | – | – |
| CCCCCCCCN(c1ccc(N=Nc2ccc(N)cc2O)cc1)c1ccc(N=Nc2c(S(=O)(=O)O)cc3cc(S(=O)(=O)O)c(N=Nc4ccc(S(=O)(=O)O)cc4)c(O)c3c2N)cc1 [Ex. 8] | B (Reflection density is 50 to 70% of that before testing.) | Reddish | 1.25 | 1.22 | 1.16 | 0.88 | 0.91 | 0.98 | 0.94 | 0.91 | 0.93 | 1.02 | – | – | – | – | – |
| Nc1ccc(N=Nc2ccc(Nc3ccc(N=Nc4c(S(=O)(=O)O)cc5cc(S(=O)(=O)O)c(N=Nc6ccccc6)c(O)c5c4N)cc3S(=O)(=O)O)cc2)c(O)c1 [compound 1, C.I. Direct Black 168, reference compound] | C (Reflection density is less than 50% that before testing.) | Reddish | 0.83 | 0.88 | 1.08 | 1.38 | 3.38 | 0.82 | 1.13 | 0.88 | 0.88 | 0.88 | Reddish black | false positive or positive | False positive | – | – |
| Nc1ccc(N=Nc2ccc(N=Nc3c(S(=O)(=O)[O-])cc4cc(S(=O)(=O)[O-])c(N=Nc5ccc(N=Nc6ccc(N)cc6N)cc5)c(O)c4c3N)cc2)c(N)c1.[Na+].[Na+] [compound 2, C.I. Direct Black 19, reference compound] | A (Reflection density is more than 70% of that before testing.) | Yellowish | 8.33 | 24.2 | 75.0 | 52.8 | 4.00 | 0.92 | 0.88 | 1.48 | 2.24 | 2.84 | – | – | – | yellowish black | false positive or positive |
